Data from EP0492277A2, “Cephalosporin derivatives” (F. HOFFMANN-LA ROCHE AG, priority 1990, dated 1992).

Tests used:
Assay in all cases: MIC, Agar Dilution Method
Assay type in all cases: cell-based
[1] = tested on: Cit. freundi BS-16
Protocol: (§1) In vitro activity of the compounds of the present invention was measured by the Minimum Inhibitory Concentration (MIC) in micrograms/ml utilizing the Agar Dilution Method, which is well known in the art, against a variety of gram-negative and gram-positive organisms.

[2] = tested on: E. coli 257
Protocol: as §1

[3] = tested on: E. coli ATCC 25922
Protocol: as §1

[4] = tested on: E. coli TEM-1
Protocol: as §1

[5] = tested on: Enter. cloacae 5699
Protocol: as §1

[6] = tested on: Enter. cloacae P99
Protocol: as §1

[7] = tested on: K. pneumoniae A
Protocol: as §1

[8] = tested on: Prot. mirabilis 90
Protocol: as §1

[9] = tested on: Prot. vulgaris 1028 BC
Protocol: as §1

[10] = tested on: Prot. vulgaris ATCC 6380
Protocol: as §1

[11] = tested on: Ps. aeruginosa 18SH
Protocol: as §1

[12] = tested on: Ps. aeruginosa 5712
Protocol: as §1

[13] = tested on: Ps. aeruginosa 765
Protocol: as §1

[14] = tested on: Ps. aeruginosa 8780
Protocol: as §1

[15] = tested on: Ps. aeruginosa ATCC 27853
Protocol: as §1

[16] = tested on: Ser. marcescens 1071
Protocol: as §1

[17] = tested on: Ser. marcescens SM
Protocol: as §1

[18] = tested on: Staph. aureus 1059B
Protocol: as §1

[19] = tested on: Staph. aureus 67
Protocol: as §1

[20] = tested on: Staph. aureus 753
Protocol: as §1

[21] = tested on: Staph. aureus ATCC 29213
Protocol: as §1

[22] = tested on: Staph. aureus Smith
Protocol: as §1

[23] = tested on: Str. faecalis ATCC 29212
Protocol: as §1

[24] = tested on: Str. pneumoniae 6301
Protocol: as §1

[25] = tested on: Str. pyogenes 4
Protocol: as §1

Substance | IN VITRO MIC [1] | IN VITRO MIC [2] | IN VITRO MIC [3] | IN VITRO MIC [4] | IN VITRO MIC [5] | IN VITRO MIC [6] | IN VITRO MIC [7] | IN VITRO MIC [8] | IN VITRO MIC [9] | IN VITRO MIC [10] | IN VITRO MIC [11] | IN VITRO MIC [12] | IN VITRO MIC [13] | IN VITRO MIC [14] | IN VITRO MIC [15] | IN VITRO MIC [16] | IN VITRO MIC [17] | IN VITRO MIC [18] | IN VITRO MIC [19] | IN VITRO MIC [20] | further results
[6R-[6a,7β(Z)]]-7-[[(2-Amino-4-thiazolyl)[(carboxymethoxy)imino]acetyl]amino]-3-[[4-(3-carboxy-1-cyclopropyl-6-fluoro-1,4-dihydro-4-oxo-7-quinolinyl)-1-piperazinyl]methyl]-8-oxo-5-thia-1-azabicyclo[4.2.0]-oct-2-ene-2-carboxylic acid sodium salt [Compound B] | 1 µg/mL | 0.25 µg/mL | 0.5 µg/mL | 0.5 µg/mL | 1 µg/mL | 0.25 µg/mL | 1 µg/mL | 2 µg/mL | 1 µg/mL | 0.25 µg/mL | 4 µg/mL | 32 µg/mL | 8 µg/mL | 8 µg/mL | 16 µg/mL | 2 µg/mL | 1 µg/mL | 2 µg/mL | 32 µg/mL | 8 µg/mL | IN VITRO MIC [21]: 8 µg/mL; IN VITRO MIC [22]: 8 µg/mL; IN VITRO MIC [23]: 16 µg/mL; IN VITRO MIC [24]: 0.25 µg/mL; IN VITRO MIC [25]: 0.125 µg/mL
[6R-[6α,7β(Z)]]-7-[[(2-Amino-4-thiazolyl)[(1-carboxyl-1-methylethoxy)imino]acetyl]amino]-3-[[4-(3-carboxy-1-cyclopropyl-6-fluoro-1,4-dihydro-4-oxo-7-quinolinyl)-1-piperazinyl]methyl]-8-oxo 5-thia-1-azabicyclo[4.2.0]-oct-2-ene-2-carboxylic acid sodium salt [Compound A] | 0.125 µg/mL | 0.25 µg/mL | 0.25 µg/mL | 0.5 µg/mL | 1 µg/mL | 0.5 µg/mL | 0.5 µg/mL | 2 µg/mL | 1 µg/mL | 0.5 µg/mL | 2 µg/mL | 16 µg/mL | 8 µg/mL | 8 µg/mL | 8 µg/mL | 1 µg/mL | 1 µg/mL | 4 µg/mL | 16 µg/mL | 8 µg/mL | IN VITRO MIC [21]: 8 µg/mL; IN VITRO MIC [22]: 8 µg/mL; IN VITRO MIC [23]: 8 µg/mL; IN VITRO MIC [24]: 0.25 µg/mL; IN VITRO MIC [25]: 0.25 µg/mL
